Experimental data as given in patent US20070249537A1, “ABSORPTION ENHANCING AGENTS” (Supernus Pharmaceuticals, Inc., priority 2003, published 2007).
In brackets after ≈: the same amount, converted by molar mass. Where two headings read alike, the source gives them in different places. Marks after values point to notes of the source that are not given here.

Tests used:
Caco-2 cell line [1] = format: in vitro ADME, human; conditions: for Permeability Coefficient, Sampatrilat / Effect on sampatrilat permeation across the Caco-2 cell line: Caco-2
Description: (§1) The Caco-2 cell line is a well-recognized in vitro screening model, which both structurally and functionally represents the small intestinal epithelium. Caco-2 cells are derived from human colon carcinoma cells and differentiate in culture to form intestinal epithelia similar to that found in the small intestine. More specifically, Caco-2 cells form a brush border with normal enzymes, form tight junctions between cells, and acquire the barrier properties of an enterocyte sheet.
(§2) Permeability coefficients are determined as previously reported by Yazdania et.el (Yazdanian M, Glynn, S I, Wright J L, et al. 1998. Correlating partitioning and Caco-2 permeability of structurally diverse small molecular weight compounds. Pharm Res 15:1490-1494). Briefly, drug solutions were prepared in HBSS at a known final concentration. For AP to BL experiments, the solution was placed on the apical side of the cells and samples were taken from basolateral side. In contrast, for BL to AP experiments, the solution was placed on the basolateral side of the cells and samples were taken from apical side. The samples are analyzed by an HPLC. Transport rates (J) are determined by plotting cumulative amounts of drug permeated as a function of time. Apparent permeability coefficients Pcaco-2, are determined according to the equation Pcaco-2=J/ACi where Ci is the initial concentration of the solution in donor chamber and A is the surface area of the filter.
(§3) The original cell line integrity and the effect of excipients on the integrity of cell line were also tested by measuring the flux of ^14C-mannitol.

Caco-2 cell line [2] = format: in vitro ADME, human
Method: as §2, §3

Caco-2 cells = test: Lactate dehydrogenase (LDH) assay after the permeation studies; format: cell-based, human
Method: In addition, a lactate dehydrogenase (LDH) assay was conducted after the permeation studies to evaluate the cytotoxicity of the absorption enhancers as well as to discover any violation of the integrity of the Caco-2 cells. LDH is a cytosolic enzyme that is not normally secreted outside the cell. However, it leaks into the culture medium upon damage to the cell membranes. In vitro release of LDH from cells provides an accurate measure of cell membrane integrity and cell viability. […] LDH leakage into the apical compartment of the Caco-2 cell system was used to measure the effect, if any, of a given absorption enhancer on the viability of the Caco-2 cells.

Caco-2 cell line [3] = format: in vitro ADME, human; remark: listed apart in the source
Description: as §1, §2

Caco-2 cell line [4] = conditions: human
Method: (§4) The effectiveness of N-methylated glycines as permeability enhancers was evaluated using mannitol as a control.

in vitro = conditions: human, Caco-2
Method: as §4

[5] = Aqueous solubility of sampatrilat; format: physicochemical
[6] = in vivo; tablet dosage form; earlier studies; cited from earlier work
[7] = sampatrilat study, excipient 1% w/v (none for drug alone)
[8] = hydrochlorothiazide study 1, excipient 1% (none for drug alone)
[9] = hydrochlorothiazide study 5, excipient 5% w/v (none for drug alone)
[10] = mannitol study, first series, enhancer 1% (none for mannitol control)
[11] = hydrochlorothiazide study 2, excipient 1% (none for drug alone)
[12] = mannitol study, first series, enhancer 0.5%
[13] = hydrochlorothiazide study 3, excipient 1% (none for drug alone)

Q: Which “Permeability Coefficient, Sampatrilat” value (Caco-2 cell line [1]) does the source give for NCCCCCC(=O)O [Amino caproic acid] here?
A: The value was 0.48 10E−6 cm/s.

Q: What about the “Permeability coefficient (mannitol)” value (Caco-2 cell line [2]) of the same compound?
A: Its value is 1.07 10E−6 cm/s.

Q: And the Toxicity (Caco-2 cells; [7])?
A: Its Toxicity is “Yes”.

Q: For NC(=O)NCCC[C@H](N)C(=O)O [Citrulline], which “Permeability Coefficient, Sampatrilat” value (Caco-2 cell line [1]) is on record?
A: The value was 0.34 10E−6 cm/s.

Q: And the “Permeability coefficient (mannitol)” value (Caco-2 cell line [2])?
A: The value was 0.22 10E−6 cm/s.

Q: What about the Toxicity (Caco-2 cells; [7]) of the same compound?
A: The Toxicity was “Yes”.

Q: Which Toxicity (Caco-2 cells; [8]) does the source give for O=C1CCCCCCCCCCCCCCO1 [Cyclopentadecanolide, cyclopentadecanolide] here?
A: Its Toxicity is “No”.

Q: What about the Toxicity (Caco-2 cells; [9]) of the same compound?
A: The Toxicity was “No”.

Q: And the “Permeability enhancement of hydrochlorothiazide” value (from here on “Permeability enhancement”) (Caco-2 cell line [3])?
A: The value was “low or no potency”.

Q: Which Toxicity (Caco-2 cells; [8]) does the source give for CC1(C)[C@@H](O)CC[C@]2(C)[C@H]3C(=O)C=C4[C@@H]5C[C@@](C)(C(=O)O)CC[C@]5(C)CC[C@@]4(C)[C@]3(C)CC[C@@H]12 [Glycyrrehetinic acid, 18β-glycyrrhetinic acid, reference compound] here?
A: The Toxicity was “No”.

Q: And the “Permeability enhancement” value (Caco-2 cell line [3])?
A: Its value is “low or no potency”.

Q: Which “Permeability Coefficient, Sampatrilat” value (Caco-2 cell line [1]) does the source give for O=c1cc(CO)occ1O [Kojic acid] here?
A: The value was 0.49 10E−6 cm/s.

Q: And the “Permeability coefficient (mannitol)” value (Caco-2 cell line [2])?
A: The value was 1.63 10E−6 cm/s.

Q: And the Toxicity (Caco-2 cells; [7])?
A: The Toxicity was “Yes”.

Q: For OC[C@@H](O)[C@@H](O)[C@H](O)[C@H](O)CO [Mannitol, reference compound], which Toxicity (Caco-2 cells; [10]) is on record?
A: The Toxicity was “No”.

Q: And the Toxicity (Caco-2 cells; mannitol study, second series, 1% enhancer and 1% Tween 80 (none for mannitol control))?
A: The Toxicity was “No”.

Q: What about the Enhancement ratio (Caco-2 cell line [4]; Caco-2) of the same compound?
A: Its Enhancement ratio is 1.0.

Q: What about the Enhancement ratio (Caco-2 cell line [4]; Caco-2, 1 %) of the same compound?
A: Its Enhancement ratio is 1.0.

Q: What about the “Permeability coefficient (mannitol)” value (Caco-2 cell line [4]; Caco-2, 1 %) of the same compound?
A: The value was 0.93^a ×10^−6 cm/sec.

Q: And the Papp at 6.8 uM (in vitro)?
A: The Papp at 6.8 uM was 1.24 ×10⁻⁶ cm/s.

Q: Which “Effect on sampatrilat permeation across the Caco-2 cell line” value (Caco-2 cell line [1]) does the source give for CN(C)CC(=O)O [N,N-dimethylglycine] here?
A: The value was “significantly increase”.

Q: What about the “Permeability Coefficient, Sampatrilat” value (Caco-2 cell line [1]) of the same compound?
A: Its value is 19.90 10E−6 cm/s.

Q: And the “Increase of sampatrilat permeability over the drug alone” value (Caco-2 cell line [1]; human, Caco-2, 1 % w/v)?
A: The value was 124 fold.

Q: What about the “Permeability coefficient (mannitol)” value (Caco-2 cell line [2]) of the same compound?
A: The value was 12.30 10E−6 cm/s.

Q: And the “Cytotoxicity relative to cells treated with Hank's balanced salt solution alone” value (Caco-2 cells)?
A: The value was “not cytotoxic”.

Q: What about the Toxicity (Caco-2 cells; [8]) of the same compound?
A: The Toxicity was “No”.

Q: What about the Toxicity (Caco-2 cells; [11]) of the same compound?
A: Its Toxicity is “No”.

Q: What about the Toxicity (Caco-2 cells; hydrochlorothiazide study 4, excipient 1% (none for drug alone)) of the same compound?
A: The Toxicity was “No”.

Q: What about the Toxicity (Caco-2 cells; [12]) of the same compound?
A: The Toxicity was “No”.

Q: What about the Toxicity (Caco-2 cells; [10]) of the same compound?
A: The Toxicity was “No”.

Q: And the Toxicity (Caco-2 cells; [7])?
A: The Toxicity was “No”.

Q: What about the “Permeability enhancement” value (Caco-2 cell line [3]) of the same compound?
A: Its value is “demonstrated as permeability enhancers”.

Q: What about the Enhancement ratio (Caco-2 cell line [4]; Caco-2, 0.5 %) of the same compound?
A: The Enhancement ratio was 9.9.

Q: And the Enhancement ratio (Caco-2 cell line [4]; Caco-2, 1 %)?
A: Its Enhancement ratio is 15.9.

Q: For O=C(/C=C/C=C/c1ccc2c(c1)OCO2)N1CCCCC1 [Piperine, piperine], which Toxicity (Caco-2 cells; [11]) is on record?
A: The Toxicity was “No”.

Q: And the Toxicity (Caco-2 cells; [9])?
A: Its Toxicity is “Yes”.

Q: What about the “Permeability enhancement” value (Caco-2 cell line [3]) of the same compound?
A: The value was “low or no potency”.

Q: What does the source list for CS(=O)(=O)N[C@@H](CCCCN)C(=O)NC[C@H](CC1(C(=O)N[C@@H](Cc2ccc(O)cc2)C(=O)O)CCCC1)C(=O)O [Sampatrilat]?
A: solubility [5]: 1800 µg/mL (≈ 3.08 mM); Oral bioavailability [6]: 2-5%

Q: For O=C(O)CCCCCCCCC(=O)O [Sebacic acid, sebacic acid], which “Effect on sampatrilat permeation across the Caco-2 cell line” value (Caco-2 cell line [1]) is on record?
A: Its value is “significantly increase”.

Q: And the “Permeability Coefficient, Sampatrilat” value (Caco-2 cell line [1])?
A: The value was 2.10 10E−6 cm/s.

Q: And the “Permeability coefficient (mannitol)” value (Caco-2 cell line [2])?
A: The value was 7.50 10E−6 cm/s.

Q: And the “Cytotoxicity relative to cells treated with Hank's balanced salt solution alone” value (Caco-2 cells)?
A: The value was “not cytotoxic”.

Q: What about the Toxicity (Caco-2 cells; [13]) of the same compound?
A: The Toxicity was “No”.

Q: And the Toxicity (Caco-2 cells; [7])?
A: Its Toxicity is “No”.

Q: And the “Permeability coefficient (hydrochlorothiazide)” value (Caco-2 cell line [3])?
A: Its value is 7.30 ×10^−6, cm/s.

Q: And the “Permeability enhancement” value (Caco-2 cell line [3])?
A: The value was “demonstrated as permeability enhancers”.

Q: With O=C(O)C1=C[C@@H](O)[C@@H](O)[C@H](O)C1 [Shikimic acid, shikimic acid] as the compound, how does the Toxicity (Caco-2 cells; [13]) read?
A: The Toxicity was “No”.

Q: What about the Toxicity (Caco-2 cells; hydrochlorothiazide study 5, excipient 3% w/v) of the same compound?
A: Its Toxicity is “No”.

Q: And the Toxicity (Caco-2 cells; [7])?
A: Its Toxicity is “No”.

Q: For C[N+](C)(C)CC(=O)O [betaine, trimethyl glycine], which Toxicity (Caco-2 cells; [10]) is on record?
A: Its Toxicity is “No”.

Q: With NCC(=O)O [glycine] as the compound, how does the Toxicity (Caco-2 cells; [12]) read?
A: The Toxicity was “No”.

Q: What about the Toxicity (Caco-2 cells; [10]) of the same compound?
A: The Toxicity was “No”.

Q: What about the Enhancement ratio (Caco-2 cell line [4]; Caco-2, 0.5 %) of the same compound?
A: Its Enhancement ratio is 0.9.

Q: And the “Permeability coefficient (mannitol)” value (Caco-2 cell line [4]; Caco-2, 0.5 %)?
A: The value was 8.5e-07 cm/s.

Q: And the Enhancement ratio (Caco-2 cell line [4]; Caco-2, 1 %)?
A: The Enhancement ratio was 1.0.

Q: And the “Permeability coefficient (mannitol)” value (Caco-2 cell line [4]; Caco-2, 1 %)?
A: The value was 9.3e-07 cm/s.

Q: Which Toxicity (Caco-2 cells; [12]) does the source give for CNCC(=O)O [sarcosine, methyl glycine] here?
A: Its Toxicity is “No”.

Q: And the Toxicity (Caco-2 cells; [10])?
A: The Toxicity was “No”.

Q: And the Enhancement ratio (Caco-2 cell line [4]; Caco-2, 0.5 %)?
A: The Enhancement ratio was 1.8.

Q: And the “Permeability coefficient (mannitol)” value (Caco-2 cell line [4]; Caco-2, 0.5 %)?
A: Its value is 1.71e-06 cm/s.

Q: And the Enhancement ratio (Caco-2 cell line [4]; Caco-2, 1 %)?
A: The Enhancement ratio was 1.0.

Q: And the “Permeability coefficient (mannitol)” value (Caco-2 cell line [4]; Caco-2, 1 %)?
A: Its value is 8.9e-07 cm/s.

Q: What does the source list for Vitamin E TPGS [Vitamin E TGPS]?
A: Toxicity (Caco-2 cells; [13]): No; Permeability coefficient (hydrochlorothiazide) (Caco-2 cell line [3]): 0.58 ×10^−6, cm/s; Permeability enhancement of hydrochlorothiazide (Caco-2 cell line [3]): low or no potency
